pIC50: −log10 of the molar value.
What was measured:
[1] = test system: Yeast - HsCIpP; experiment: Yeast growth inhibition screen, yeast without human ClpP (selectivity control); assay type: cell-based; settings: Saccharomyces cerevisiae; yeast without HsCIpP, 24 h at 25 °C, absorbance at 600 nm; read-out: Yeast - HsCIpP GI50
Procedure: (§1) These cells contain mutants in YRS1, YRR1, PDR1 and PDR3 genes, which are involved in polydrug and pleiotropic resistance networks.
(§2) The yeast (both HsCpIP+ and HsCIpP-) are incubated in petri dishes with YPD (Yeast extract peptone dextrose) at 25 °C overnight, after which a colony is isolated, suspended in a flask with fresh YPD and incubating again under the same conditions but with agitation. […] 100 µl of this solution was then placed into the appropriated wells of a standard 96-well plate. Stock solutions (DMSO, 10 mM) of the compounds to be tested are diluted in YPD to 2X of their final concentrations to be tested, and 100 µl added to the appropriate wells. 100 µl of YPD was added to wells designated as the negative control wells, while ONC206 (0.5 µM) was used as the positive control. Once all compounds were added to the plate, an initial T = 0 absorbance value was recorded at 600 Nm. The plate was then incubated at 25 °C with gentle shaking for 24 h. The plates can either be read at multiple time points using a TECAN Spark® Multimode Microplate Reader, or at the end of the experiment using a standard spectrophotometer.
(§3) Table 2: Growth inhibition (GI50) values for compounds of the present invention in yeast containing HsCIpP, and yeast without HsCIpP.

[2] = test system: 4T1 tumours; experiment: 4T1 syngeneic tumour model in immunocompetent mice; assay type: in vivo, Balb/c mice; settings: 25 mg/kg PO three times per week
Procedure: 4T1 syngeneic tumours were induced in female immunocompetent Balb/c mice by inject 12500 4T1 cells (passage# <7, in PBS, 100 µL) into their left inguinal mammary fat pad. Once tumour volumes [measure using the formula V = 0.5(length x width^2)] reached […], treatment with either vehicle, or compound in vehicle, was began. Compounds were administered orally (PO) at a constant dose (typically 25 mg/kg) three times per week (Monday, Wednesday and Friday). Compounds (as ether their free base or salt) were formulated as either solutions or homogenous suspensions in a vehicle of 10% Cremaphor RH40 + 90% saline for injection. Formulations were prepared at concentrations (mg/mL) = Dose/5 (e.g. a dose of 25 mg/Kg used a formulation of 5 mg/ml). Once treatments began, tumour volumes and body weights were recorded on each treatment day. Treatments were continued until 25-28 days after first treatment day, after which the mice were sacrificed. Animals whose tumour reached […] during the experiment were also sacrificed.

[3] = test system: 4T1; experiment: MTT cell viability assay, 4T1; assay type: cell-based; settings: Mus musculus; 4T1 cells, 48 H, MTT, average of at least two independent experiments; read-out: IC50 4T1 48 H
Procedure: This a mouse epithelial breast cancer cell line classified as being triple negative and mimics human breast cancer; stage IV.
Cell viability was assayed by measuring the mitochondrial reduction of the tetrazolium salt 3-(4,5-methyltiazol-2yl)-2,5diphenyl-tetrazolium bromide] (MTT) (Applichen; A2231,0010) [Mosmann T. J Immunol Methods. […] Oncogene. […] Cells were seeded at a density according to their exponential growth phase (normally 1000 to 5000/well). The cells were cultured at 37 °C in the dark in air containing 5% CO2. After 24h either vehicle (0.05% DMSO), or drug, was added to culture medium at the indicated concentrations (10 to 0,01microM). […] The medium was then removed, and the precipitated formazan was solubilized by the addition of DMSO (200 µL).

[4] = test system: DU-145; experiment: MTT cell viability assay, DU-145; assay type: cell-based; settings: Homo sapiens, DU-145 cells, 72 H, average of at least two independent experiments
Procedure: This a human prostate cancer cell line derived from a metastatic site (brain) of a person.
(§4) Cell viability was assayed by measuring the mitochondrial reduction of the tetrazolium salt 3-(4,5-methyltiazol-2yl)-2,5diphenyl-tetrazolium bromide] (MTT) (Applichen; A2231,0010) [Mosmann T. J Immunol Methods. […] Oncogene. […] Cells were seeded at a density according to their exponential growth phase (normally 1000 to 5000/well). The cells were cultured at 37 °C in the dark in air containing 5% CO2. After 24h either vehicle (0.05% DMSO), or drug, was added to culture medium at the indicated concentrations (10 to 0,01microM). After another 72 h, MTT (0.3 mg/ml) was added to cells, followed by incubation for 2-4h at 37 °C in the dark. The medium was then removed, and the precipitated formazan was solubilized by the addition of DMSO (200 µL).

[5] = test system: Yeast + HsCIpP; experiment: Yeast growth inhibition screen, yeast expressing human ClpP; assay type: cell-based; settings: Saccharomyces cerevisiae, 24 h, read-out: Yeast + HsCIpP GI50
Source text: This technique allows to directionally assemble several DNA fragments into one single DNA piece. It is based on plasmid libraries that share the same DNA backbone but differ in the type of the insert. The assembly of the final cassette is based on the "Golden Gate Cloning" method. Human CLPP gene sequence (codon-optimized for yeast translation) was amplified with well-designed primers from a plasmid kindly provided by Dr. Michael David Tyers (University of Montreal). Once amplified, a MoClo reaction was performed to obtain the final integrative cassette. This cassette was composed as follows: • Type 1: ConLS 3' connector. • Type 2: TDH3 gene promoter (strong and constitutive expression). • Type 3: Amplified human CLPP gene. • Type 4: ADH1 gene terminator. • Type 5: ConR1 5' connector. • Type 6: LEU2 gene as selectable marker for yeast. • Type 7: 3' HO gene homology sequence for yeast integration. • Type 8a: KanR-ColE1 sequence for bacterial amplification and antibiotic resistance. • Type 8b: 5' HO gene homology sequence for yeast integration.
Digestion patterns with several restriction enzymes were carried out to confirm the success of the MoClo system. An extra restriction enzyme reaction (Notl) was performed to linearize the DNA fragment and deplete the bacterial part.
as §1
Yeast cells were transformed with the linearized cassette and transformant colonies were selected on minimum media without leucine. Independent clones were checked by PCR and positive ones were stored at -80 °C until use.
as §2, §3

[6] = test system: MDA-MB-231; experiment: MTT cell viability assay, MDA-MB-231; assay type: cell-based; settings: Homo sapiens, MDA-MB-231 cells, 72 H, average of at least two independent experiments
Procedure: This a human breast cancer cell line derived from a metastatic site from a person.
as §4

[7] = test system: U2 OS; experiment: MTT cell viability assay, U2 OS; assay type: cell-based; settings: Homo sapiens, U2OS, U2 OS cells, 72 H, average of at least two independent experiments
Procedure: U2 OS [American Type Culture Collection (ATCC) reference number HTB-96]. This is a human bone cancer (a moderately differentiated sarcoma) cell derived from an osteosarcoma patient.
as §4

[8] = test system: PANC1; experiment: MTT cell viability assay, PANC1; assay type: cell-based; settings: Homo sapiens, PANC-1, PANC1 cells, 72 H, average of at least two independent experiments
Procedure: This a human cancer cell line derived from the pancreas of a person.
as §4

O=C1C2CN(Cc3cccc(F)c3)CCN2CCN1Cc1cccc(Cl)c1 (stereo not drawn) [Compound 4]
GI50 [1]: > 10000 nM | changes in body weights ([2]; 4T1 tumour-bearing Balb/c mice, during the experimental period): no significant changes | Tumour growth reduced ([2]; established 4T1 tumours, female Balb/c mice, versus vehicle, p < 0.01): 50% | pIC50 [3]: 6.48 | pIC50 [4]: 6.07 | GI50 [5]: 210 nM | pIC50 [6]: 6.35 | pIC50 [7]: 6.30 | pIC50 [8]: 6.47

Source: patent publication EP4488279A1, “SUBSTITUTED HEXAHYDRO-2H-PYRAZINO[1,2-A]PYRAZIN-1(6H)-ONE DERIVATIVES AS ACTIVATORS OF HUMAN CASEINOLYTIC PROTEASE P (HSCLPP)” (Centro Atlantico del Medicamento S.A (Ceamed, S.A), priority 2023, dated 2025)
